Experimental data: patent publication US20230312582A1, “Salts Of Nitrogen-Containing Heterocyclic Compound, And Solid Forms Of Salts, Pharmaceutical Composition And Use Thereof” (Wuhan Humanwell Innovative Drug Research And Development …, priority 2020, published 2023)
Like-named read-outs stand apart in the source and are kept apart here.

What was measured:
[1] = test system: Bleomycin-induced IPF model; assay: Bleomycin-induced IPF model in rats; format: in vivo; details: 30 mg/kg oral twice a day, 21 days
Protocol: The bleomycin-induced IPF model (idiopathic pulmonary fibrosis model) was performed at a dose of 5 U/kg using male BN rats weighing 180-240 g. […] The oral intragastric administration was performed twice a day on the second day after the modeling. The administration group was given a dose of 30 mg/kg at one time, and the vehicle control group was given blank vehicle for 21 consecutive days. During dosing, body weights were weighed every three days. On the 21st day of administration, bronchoalveolar lavage was performed 2 h after the first administration, the inflammatory cells in the lavage fluid were counted, and the relevant biomarkers in the lavage fluid supernatant were detected; after lavage, the left lung of the rat was harvested for fixation, and Masson's trichrome staining was used for pathological scoring of fibrosis and the remaining lung lobes were cryopreserved. The bronchoalveolar lavage fluid supernatant and freshly cryopreserved lung tissue of compound 3 group were taken, and the TGF-β1 protein content and total protein amount were detected by ELISA method, and the amount of TGF-β1 per mg of total protein was calculated.

[2] = Stability assay of human liver microsome; format: in vitro ADME; details: human liver microsomes
Protocol: The stability of human liver microsome was detected by in vitro co-incubation of compounds with human liver microsomes. Test compounds were first prepared as 10 mM stock solutions in DMSO solvent, followed by dilution of the compounds to 0.5 mM using acetonitrile. […] The deep-well plate was taken, […] was added to each well, then 15 μL of pre-warmed 6 mM NADPH solution was added to the plate to start the reaction, and the plate was incubated at 37° C. […] The supernatant was taken after centrifugation, and added with purified water at a ratio of 1:1 for LC-MS/MS detection to obtain the ratio of peak area of compound to peak area of internal standard at each time point. […] T1/2 was calculated using Excel.

hERG channel [3] = target: T1, hERG channel (Homo sapiens (Human), UniProt Q12809); details: hERG IC50 in μM divided by ATX IC50 in nM as printed
T1 sequence (Q12809 whole entry): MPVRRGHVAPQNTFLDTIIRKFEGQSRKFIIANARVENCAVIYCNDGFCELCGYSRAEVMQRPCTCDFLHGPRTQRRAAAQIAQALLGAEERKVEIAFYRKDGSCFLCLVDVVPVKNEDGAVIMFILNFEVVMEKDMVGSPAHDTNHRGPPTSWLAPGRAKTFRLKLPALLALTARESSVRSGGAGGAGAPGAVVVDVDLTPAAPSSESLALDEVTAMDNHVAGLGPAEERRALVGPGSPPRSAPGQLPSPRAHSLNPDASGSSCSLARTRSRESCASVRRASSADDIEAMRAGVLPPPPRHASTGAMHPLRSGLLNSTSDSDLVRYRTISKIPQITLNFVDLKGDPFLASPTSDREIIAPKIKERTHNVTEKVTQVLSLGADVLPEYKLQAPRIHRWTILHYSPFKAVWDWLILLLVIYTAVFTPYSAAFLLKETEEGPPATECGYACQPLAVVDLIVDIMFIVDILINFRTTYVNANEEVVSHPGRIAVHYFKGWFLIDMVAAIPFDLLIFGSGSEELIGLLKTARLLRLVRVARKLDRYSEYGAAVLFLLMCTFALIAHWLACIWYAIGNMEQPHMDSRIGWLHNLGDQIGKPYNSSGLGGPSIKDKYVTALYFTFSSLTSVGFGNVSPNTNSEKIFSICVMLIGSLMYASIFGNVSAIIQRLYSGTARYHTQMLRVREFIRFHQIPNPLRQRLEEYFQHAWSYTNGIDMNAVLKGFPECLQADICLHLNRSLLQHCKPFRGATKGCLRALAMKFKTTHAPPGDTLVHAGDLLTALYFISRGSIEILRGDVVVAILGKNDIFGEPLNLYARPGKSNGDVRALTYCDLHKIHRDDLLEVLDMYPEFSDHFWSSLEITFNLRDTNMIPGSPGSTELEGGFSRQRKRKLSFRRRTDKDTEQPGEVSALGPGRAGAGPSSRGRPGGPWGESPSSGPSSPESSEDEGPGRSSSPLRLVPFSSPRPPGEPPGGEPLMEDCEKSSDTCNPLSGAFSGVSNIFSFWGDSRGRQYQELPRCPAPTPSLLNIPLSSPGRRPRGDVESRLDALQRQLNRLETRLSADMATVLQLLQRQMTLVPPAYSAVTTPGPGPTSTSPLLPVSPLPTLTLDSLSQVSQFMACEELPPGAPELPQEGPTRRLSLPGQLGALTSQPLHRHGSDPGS
Protocol: (§2) Inhibitory effect of the compound on hERG was detected using automated electrophysiological patch clamp QPatch. The cells used in this assay were CHO cell lines (supplied by Sophion Bioscience, Denmark) transfected with hERG cDNA and stably expressing hERG channel at cell passage number of P24. The cells were cultured in a medium containing the following components (all purchased from Invitrogen): ham's F12 medium, 10% (v/v) inactivated fetal bovine serum, 100 μg/mL hygromycin B and 100 μg/mL Geneticin. CHO hERG cells were grown in a culture dish containing the above culture solution and cultured in an incubator containing 5% CO2 at 37° C.
(§3) Extracellular buffer (2 mM CaCl2, 1 mM MgCl2, 4 mM KCl, 145 mM NaCl, 10 mM Glucose, 10 mM HEPES, pH: about 7.4, osmotic pressure: about 305 mOsm) and intracellular buffer (5.374 mM CaCl2, 1.75 mM MgCl2, 120 mM KCl, 10 mM HEPES, 5 mM EGTA, 4 mM Na-ATP, pH: about 7.25, osmotic pressure: about 295 mOsm) were prepared. […]
(§4) The assay data were analyzed by Qpatch analysis software supplied by Sophion, Excel, Graphpad Prism and the like.

[4] = Thermodynamic solubility assay; format: physicochemical; details: thermodynamic from solid
Protocol: The compounds were weighed out accurately, added to the prepared phosphate buffered saline at pH 7.4, FeSSIF solution at pH 5.8 and FaSSGF solution at pH 1.6 to prepare a solution at a concentration of 4 mg/mL, and the prepared solution was shaken at 1000 rpm for 1 h, and then incubated overnight at room temperature. The incubated solution was centrifuged at 12000 rpm for 10 min to remove undissolved particles, and the supernatant was transferred to a new centrifuge tube. After the supernatant was diluted properly, the supernatant was added with an acetonitrile solution containing an internal standard, and quantified by adopting a standard curve prepared by the same matrix.

[5] = In vivo pharmacokinetic assay in rats
Protocol: (§1) In vivo pharmacokinetic assay in rats was performed, wherein the used rats were 6 male SD rats weighing 180-240 g and fasted overnight. […] Blood samples were centrifuged at 8000 rpm for 6 min at 4° C., and plasma was collected and stored at −20° C. The plasma at each time point was taken and added with 3-5 times of acetonitrile solution containing the internal standard for mixing, and the mixed solution was subjected to vortex mixing for 1 min, and centrifuging at 4° C. for 10 min at 13000 rpm. The supernatant was taken and added with 3 times of water for mixing. A proper amount of the mixed solution was taken for LC-MS/MS analysis. The major pharmacokinetic parameters were analyzed using WinNonlin 7.0 software and a non-compartmental model.

[6] = target: ATX enzymatic activity in human plasma (Homo sapiens (Human), UniProt Q13822); assay: biochemical
Protocol: Whole blood from healthy volunteers was collected and anticoagulated with heparin. The blood collection tubes were centrifuged at 3000 rpm for 10 min, and plasma was taken and stored at −80° C. for later use.
The compounds were serially diluted with DMSO according to the standard concentration requirements, and then 3 μL of the compound was taken and added to a 96-well plate. 147 μL of PBS was added to each well containing 3 μL of the compound, and the mixed solution was mixed well, and then 50 μL of the mixed solution was taken out and added to a new 96-well plate. The human plasma was taken out of −80° C. refrigerator and thawed by rapid shaking in a 37° C. water bath, and 50 μL of human plasma was added to a 96-well plate containing 50 μL of diluted compounds (the final system was 1% DMSO). […]
After the incubation, the blank group was thawed on ice and transferred to the incubation plate. […] The peak areas of LPA18:2 and internal standard LPA17:0 were detected by LC-MSMS mass spectrometry.
The peak area ratio of LPA18:2 to internal standard LPA17:0 was calculated, and the generation inhibition rate of LPA18:2 was calculated according to the following formula: […]
According to the inhibition rate of different concentrations of the compound, the IC50 values of the compound were calculated for inhibition of ATX enzymatic activity in human plasma.

hERG channel [7] = target: T1, hERG channel; assay: cell-based
Protocol: as §2, §3, §4

[8] = In vivo pharmacokinetic assay in mice; details: male, ICR, mouse, plasma
Protocol: as §1
In vivo pharmacokinetic assay in mice was performed, wherein the used mice were 18 male ICR mice weighing 20-25 g and fasted overnight. […] The rest of the procedure was performed in the same manner as in the pharmacokinetic assay in rats.

Autotaxin enzyme = Autotaxin enzyme (Homo sapiens (Human), UniProt Q13822); details: read-out: IC50 against ATX enzymatic activity; Autotaxin Inhibitor Screening Assay Kit, 37° C., 30 min, OD405
Protocol: The inhibitory activity of the compound against the Autotaxin enzyme was detected using the Autotaxin Inhibitor Screening Assay Kit (Cayman, 700580). The compound to be tested was first prepared into 10 mM stock solution in DMSO solvent, and then serially diluted into 8 concentrations of compound with DMSO. Subsequently, 8 concentrations of compound were diluted to 19× compound working solution (with DMSO content of 1.9%) with an Autotaxin Assay buffer (1×) provided in the kit. Autotaxin Assay Reagent (10×) was taken out and diluted 10-fold with Autotaxin Assay Buffer (1×). The Autotaxin Substrate was taken out, and added with 1.2 mL of Autotaxin Assay Buffer (1×) for dissolving. The mixture was mixed well and then let stand at room temperature. In a 96-well plate, 150 μL of Autotaxin Assay Buffer (1×), 10 μL of diluted 19× compound working solution, 10 μL of Autotaxin Assay Reagent (1×), 20 μL of dissolved Autotaxin Substrate were added into wells at each concentration, and then the mixture was mixed well, incubated at 37° C. on a constant-temperature shaking shaker, and incubated in the dark for 30 min.

[9] = male, SD, rat, plasma, intravenous injection 1 mg/kg
[10] = male, SD, rat, plasma, oral intragastric administration 10 mg/kg
[11] = oral intragastric administration 10 mg/kg

In the case of C[C@H](Cc1cnn[nH]1)OCC(=O)N1Cc2cnc(NC3Cc4ccccc4C3)nc2C1 [Compound of formula (I), (R)-2-((1-(1H-1,2,3-triazol-5-yl)propan-2-yl)oxy)-1-(2-((2,3-dihydro-1H-inden-2-yl)amino)-5,7-dihydro-6H-pyrrolo[3,4-d]pyrimidin-6-yl)ethan-1-one], the “content of TGF-β1 in freshly cryopreserved lung tissue” value ([1]; ELISA, FIG. 44) is reported as “significantly lower than that of the vehicle control group”, the “content of TGF-β1 in the bronchoalveolar lavage fluid supernatant” value ([1]; ELISA, FIG. 44) is reported as “significantly lower than that of the vehicle control group” and the “weight loss of the animals” value ([1]; FIG. 43) is reported as “significantly less than that of the control compound group”. The “T1/2 of the liver microsome stability relative to the control compound” value [2] was “more than 2 times”, the “Remaining percentage of compound after 30 min of incubation (%)” value ([2]; NADPH, 37° C.) was 63.7% and the half-life at 1.5 μM ([2]; NADPH, 37° C.) was 53.6 min. For the same compound, the “hERG IC50/ATX IC50” value (hERG channel [3]) was 9.48/1.59 = 6.0, the solubility ([4]; FaSSGF solution, fassgf or other biorelevant, heading: Solubility FaSSGF, FaSSGF, pH 1.6, room temperature overnight) was 1.04 mg/mL and the solubility ([4]; FeSSIF solution, FeSSIF, pH 5.8, room temperature overnight, read-out: Solubility FeSSIF (pH 5.8)) was 260 mg/mL. The solubility ([4]; phosphate buffered saline, aqueous buffer, PBS, pH 7.4, room temperature overnight, read-out: Solubility PBS (pH 7.4)) was 107 mg/mL, the “clearance (CL) in rats relative to that of the control compound” value [5] was “about ⅙” and the AUC(0-t) [5, 9] was 3650 ng·h/mL. For the same compound, the clearance [5, 9] was 4.67 mL/min/kg, the half-life [5, 9] was 30 min and the Vd ([5]; male, SD, rat, plasma, intravenous injection 1 mg/kg, read-out: Vz) was 0.21 L/kg. The AUC(0-t) [5, 10] was 20700 ng·h/mL, the Cmax [5, 10] was 15800 ng/mL and the Tmax [5, 10] was 19.8 min. The half-life [5, 10] was 154 min, the “AUC0-t of oral administration relative to the control compound” value ([5]; oral) was 4.2 times and the “Cmax of oral administration relative to the control compound” value ([5]; oral) was 6.1 times. For the same compound, the IC50 [6] was 4.7 nM, the IC50 (hERG channel [7]) was 9480 nM and the AUC(0-t) ([8]; intravenous injection 1 mg/kg) was 626 ng·h/mL. It also gave a clearance ([8]; intravenous injection 1 mg/kg) of 26.7 mL/min/kg, a half-life ([8]; intravenous injection 1 mg/kg) of 22.8 min and a Vd ([8]; intravenous injection 1 mg/kg, read-out: Vz) of 0.88 L/kg. The AUC(0-t) [8, 11] was 6370 ng·h/mL, the Cmax [8, 11] was 6360 ng/mL and the Tmax [8, 11] was 15 min. The half-life [8, 11] was 52.2 min and the IC50 (Autotaxin enzyme) was 1.59 nM.
